Reference: patent US9556165B2 (priority 2012, dated 2017)
Converted amounts (≈) assume the structure as drawn.

Assays:
Assay in all cases: MIC determination, broth microdilution (CLSI)
Assay type in all cases: cell-based
C. freundii K21/3034 = settings: Citrobacter freundii, K21/3034, strain 4
P. aeruginosa PAO1 = settings: Pseudomonas aeruginosa, PAO1, strain 6
E. coli J62 = settings: Escherichia coli, J62, strain 17; read-out: strain 17 MIC
strain 20 = system: strain 20
[1] = system: P. aeruginosa 2297 (AmpC wt); settings: Pseudomonas aeruginosa, strain 7
B. fragilis 6688 = settings: Bacteroides fragilis, 6688, strain 15; read-out: strain 15 MIC
K. pneumoniae 60 = settings: Klebsiella pneumoniae, 60, strain 2
S. aureus 133 = settings: Staphylococcus aureus, 133, strain 11; read-out: strain 11 MIC
strain 21 = system: strain 21
strain 19 = system: strain 19
[2] = system: P. aeruginosa 2297-con (AmpC derepressed); settings: Pseudomonas aeruginosa, read-out: strain 8 MIC, strain 8
E. coli J62-TEM-3 = settings: Escherichia coli, J62TEM3, read-out: strain 18 MIC, strain 18
H. influenzae ATCC 49247 = settings: Haemophilus influenzae, ATCC49247, strain 13; read-out: strain 13 MIC
E. cloacae 34654 = settings: Enterobacter cloacae, 34654, strain 3
A. baumannii ATCC15308 = settings: Acinetobacter baumannii, ATCC15308, strain 9
S. pneumoniae 113 = settings: Streptococcus pneumoniae, 113, strain 14; read-out: strain 14 MIC
M. catarrhalis ICB489 = settings: Moraxella catarrhalis, ICB489, strain 12
M. morganii 126/3048 = settings: Morganella morganii, 126/3048, strain 5
E. coli ATCC25922 = settings: Escherichia coli, ATCC25922, strain 1

SMILES	MIC (C. freundii K21/3034)	MIC (P. aeruginosa PAO1)	MIC (E. coli J62)	MIC (strain 20)	MIC [1]	MIC (B. fragilis 6688)	MIC (K. pneumoniae 60)	MIC (S. aureus 133)	MIC (strain 21)	MIC (strain 19)	MIC [2]	MIC (E. coli J62-TEM-3)	MIC (H. influenzae ATCC 49247)	MIC (E. cloacae 34654)	MIC (A. baumannii ATCC15308)	MIC (S. pneumoniae 113)	MIC (M. catarrhalis ICB489)	MIC (M. morganii 126/3048)	MIC (E. coli ATCC25922)
C[C@H]1[C@H](NC(=O)/C(=N\OCCOc2ccc(C(=N)N)nc2)c2csc(N)n2)C(=O)N1S(=O)(=O)O [Example 3, (2S,3S)-3-{[(2Z)-2-(2-Amino-1,3-thiazol-4-yl)-2-({2-[(6-carbamimidoylpyridin-3-yl)oxy]ethoxy}imino)acetyl]amino}-2-methyl-4-oxoazetidine-1-sulfonic acid]	≤ 0.063 µg/mL	2 µg/mL (≈ 3.9 µM)	0.25 µg/mL (≈ 0.488 µM)	0.125 µg/mL (≈ 0.244 µM)	4 µg/mL (≈ 7.8 µM)	8 µg/mL (≈ 15.6 µM)	≤ 0.063 µg/mL	≤ 0.063 µg/mL	0.25 µg/mL (≈ 0.488 µM)	0.125 µg/mL (≈ 0.244 µM)	16 µg/mL (≈ 31.2 µM)	16 µg/mL (≈ 31.2 µM)	0.5 µg/mL (≈ 0.976 µM)	0.125 µg/mL (≈ 0.244 µM)	1 µg/mL (≈ 1.95 µM)	8 µg/mL (≈ 15.6 µM)	0.125 µg/mL (≈ 0.244 µM)	0.125 µg/mL (≈ 0.244 µM)	0.125 µg/mL (≈ 0.244 µM)
C[C@H]1[C@H](NC(=O)/C(=N\OCCOc2ccc(C(=N)N)cn2)c2csc(N)n2)C(=O)N1S(=O)(=O)O [Example 5, (2S,3S)-3-{[(2Z)-2-(2-Amino-1,3-thiazol-4-yl)-2-({2-[(5-carbamimidoylpyridin-2-yl)oxy]-ethoxy}imino)acetyl]amino}-2-methyl-4-oxoazetidine-1-sulfonic acid]	0.25 µg/mL (≈ 0.488 µM)	4 µg/mL (≈ 7.8 µM)	0.5 µg/mL (≈ 0.976 µM)	0.25 µg/mL (≈ 0.488 µM)	4 µg/mL (≈ 7.8 µM)	8 µg/mL (≈ 15.6 µM)	≤ 0.063 µg/mL	0.125 µg/mL (≈ 0.244 µM)	0.25 µg/mL (≈ 0.488 µM)	0.25 µg/mL (≈ 0.488 µM)	32 µg/mL (≈ 62.4 µM)	16 µg/mL (≈ 31.2 µM)	0.5 µg/mL (≈ 0.976 µM)	0.125 µg/mL (≈ 0.244 µM)	1 µg/mL (≈ 1.95 µM)	4 µg/mL (≈ 7.8 µM)	0.25 µg/mL (≈ 0.488 µM)	0.125 µg/mL (≈ 0.244 µM)	0.25 µg/mL (≈ 0.488 µM)
C[C@H]1[C@H](NC(=O)/C(=N\OCCNc2ccc(C(=N)N)cc2)c2csc(N)n2)C(=O)N1S(=O)(=O)O [Example 8, (2S,3S)-3-{[(2Z)-2-(2-Amino-1,3-thiazol-4-yl)-2-({2-[(4-carbamimidoylphenyl)amino]ethoxy}imino)acetyl]amino}-2-methyl-4-oxoazetidine-1-sulfonic acid]	0.5 µg/mL (≈ 0.979 µM)	8 µg/mL (≈ 15.7 µM)	4 µg/mL (≈ 7.83 µM)	4 µg/mL (≈ 7.83 µM)	32 µg/mL (≈ 62.7 µM)	16 µg/mL (≈ 31.3 µM)	0.5 µg/mL (≈ 0.979 µM)	0.25 µg/mL (≈ 0.49 µM)	4 µg/mL (≈ 7.83 µM)	2 µg/mL (≈ 3.92 µM)	32 µg/mL (≈ 62.7 µM)	–	1 µg/mL (≈ 1.96 µM)	2 µg/mL (≈ 3.92 µM)	4 µg/mL (≈ 7.83 µM)	8 µg/mL (≈ 15.7 µM)	0.5 µg/mL (≈ 0.979 µM)	0.25 µg/mL (≈ 0.49 µM)	1 µg/mL (≈ 1.96 µM)
Cc1cc(OCCO/N=C(\C(=O)N[C@@H]2C(=O)N(S(=O)(=O)O)[C@H]2C)c2csc(N)n2)ccc1C(=N)N [Example 14, (2S,3S)-3-{[(2Z)-2-(2-Amino-1,3-thiazol-4-yl)-2-{[2-(4-carbamimidoyl-3-methylphenoxy)ethoxy]imino}acetyl]amino}-2-methyl-4-oxoazetidine-1-sulfonic acid]	0.25 µg/mL (≈ 0.476 µM)	4 µg/mL (≈ 7.61 µM)	1 µg/mL (≈ 1.9 µM)	0.5 µg/mL (≈ 0.951 µM)	8 µg/mL (≈ 15.2 µM)	16 µg/mL (≈ 30.4 µM)	1 µg/mL (≈ 1.9 µM)	≤ 0.063 µg/mL	0.5 µg/mL (≈ 0.951 µM)	0.5 µg/mL (≈ 0.951 µM)	32 µg/mL (≈ 60.9 µM)	32 µg/mL (≈ 60.9 µM)	0.5 µg/mL (≈ 0.951 µM)	0.5 µg/mL (≈ 0.951 µM)	2 µg/mL (≈ 3.81 µM)	8 µg/mL (≈ 15.2 µM)	0.25 µg/mL (≈ 0.476 µM)	0.5 µg/mL (≈ 0.951 µM)	0.5 µg/mL (≈ 0.951 µM)
C[C@H]1[C@H](NC(=O)/C(=N\OCC(C)(C)Oc2ccc(C(=N)N)cc2)c2csc(N)n2)C(=O)N1S(=O)(=O)O [Example 17, (2S,3S)-3-{[(2Z)-2-(2-Amino-1,3-thiazol-4-yl)-2-{[2-(4-carbamimidoylphenoxy)-2-methyl-propoxy]imino}acetyl]amino}-2-methyl-4-oxoazetidine-1-sulfonic acid]	1 µg/mL (≈ 1.85 µM)	8 µg/mL (≈ 14.8 µM)	2 µg/mL (≈ 3.71 µM)	2 µg/mL (≈ 3.71 µM)	16 µg/mL (≈ 29.7 µM)	4 µg/mL (≈ 7.41 µM)	2 µg/mL (≈ 3.71 µM)	2 µg/mL (≈ 3.71 µM)	2 µg/mL (≈ 3.71 µM)	1 µg/mL (≈ 1.85 µM)	32 µg/mL (≈ 59.3 µM)	32 µg/mL (≈ 59.3 µM)	1 µg/mL (≈ 1.85 µM)	2 µg/mL (≈ 3.71 µM)	8 µg/mL (≈ 14.8 µM)	2 µg/mL (≈ 3.71 µM)	2 µg/mL (≈ 3.71 µM)	≤ 0.063 µg/mL	2 µg/mL (≈ 3.71 µM)
C[C@H]1[C@H](NC(=O)/C(=N\OCCOc2ccc(C(=N)N)cc2Cl)c2csc(N)n2)C(=O)N1S(=O)(=O)O [Example 20, (2S,3S)-3-{[(2Z)-2-(2-Amino-1,3-thiazol-4-yl)-2-{[2-(4-carbamimidoyl-2-chlorophenoxy)ethoxy]imino}acetyl]amino}-2-methyl-4-oxoazetidine-1-sulfonic acid]	1 µg/mL (≈ 1.83 µM)	8 µg/mL (≈ 14.7 µM)	2 µg/mL (≈ 3.66 µM)	2 µg/mL (≈ 3.66 µM)	8 µg/mL (≈ 14.7 µM)	16 µg/mL (≈ 29.3 µM)	2 µg/mL (≈ 3.66 µM)	0.125 µg/mL (≈ 0.229 µM)	1 µg/mL (≈ 1.83 µM)	2 µg/mL (≈ 3.66 µM)	32 µg/mL (≈ 58.6 µM)	32 µg/mL (≈ 58.6 µM)	0.5 µg/mL (≈ 0.916 µM)	2 µg/mL (≈ 3.66 µM)	2 µg/mL (≈ 3.66 µM)	16 µg/mL (≈ 29.3 µM)	0.5 µg/mL (≈ 0.916 µM)	2 µg/mL (≈ 3.66 µM)	2 µg/mL (≈ 3.66 µM)
C[C@H]1[C@H](NC(=O)/C(=N\OCCOc2ccc(C(=N)N)nn2)c2csc(N)n2)C(=O)N1S(=O)(=O)O [Example 28, (2S,3S)-3-{[(2Z)-2-(2-Amino-1,3-thiazol-4-yl)-2-({2-[(6-carbamimidoylpyridazin-3-yl)oxy]ethoxy}imino)acetyl]amino}-2-methyl-4-oxoazetidine-1-sulfonic acid]	0.125 µg/mL (≈ 0.243 µM)	4 µg/mL (≈ 7.79 µM)	0.25 µg/mL (≈ 0.487 µM)	0.25 µg/mL (≈ 0.487 µM)	8 µg/mL (≈ 15.6 µM)	8 µg/mL (≈ 15.6 µM)	0.125 µg/mL (≈ 0.243 µM)	0.125 µg/mL (≈ 0.243 µM)	0.25 µg/mL (≈ 0.487 µM)	0.25 µg/mL (≈ 0.487 µM)	32 µg/mL (≈ 62.3 µM)	32 µg/mL (≈ 62.3 µM)	0.5 µg/mL (≈ 0.974 µM)	0.125 µg/mL (≈ 0.243 µM)	0.5 µg/mL (≈ 0.974 µM)	2 µg/mL (≈ 3.89 µM)	0.25 µg/mL (≈ 0.487 µM)	0.125 µg/mL (≈ 0.243 µM)	0.125 µg/mL (≈ 0.243 µM)
